Laboratory results: US5279956A, “Activated protein C polypeptides and anti-peptide antibodies, diagnostic methods and systems for inhibiting activated protein C” (The Scripps Research Institute, priority 1991, dated 1994)
Entries after “also recorded” stand apart in the source; their conditions may differ. No end group written: not given here.

Tested on: anti-(390-404) antibody
Assay: Solid-phase ELISA: binding of anti-(390-404) antibody to immobilized peptides and PC
Design: species or system rabbit
Protocol: To determine the immunospecificity of the rabbit antisera obtained in Example 2b, ELISA assays were performed. Briefly, 50 μl of either 50 μM peptide-(390-404) prepared in Example 1 or 10 μg/ml of PC or APC prepared in Example 2c in a buffer consisting of 0.05M sodium carbonate (Na2 CO3) and 0.02% NaN3 at pH 9.0 were admixed into the wells of microtiter plates. The plates were maintained at 37° C. for one hour to permit the antigens to become operatively affixed to the well walls. After washing the antigen-coated wells with TBS, the wells were blocked with 250 μl/well of 10% bovine serum albumin (BSA) (Sigma) in TBS for one hour at 22° C. The blocking solution was then removed and the wells were subsequently washed five times with 250 μl/well of maintenance buffer (0.05M Tris-HCl, 0.1M NaCl, 0.02% NaN3, 1 mg/ml BSA, 5 mM CaCl2, 0.01% Tween 20 at pH 7.4). Fifty μl of rabbit non-immune or specific antiserum serially diluted in maintenance buffer was then admixed to the washed wells and maintained for one hour at 37° C. to allow formation of a solid liquid phase immunoreaction products. The wells were then washed three times with maintenance buffer followed by admixture of 50 μl of 2.0 μg/ml of secondary antibody (polyclonal biotinylated goat-anti-rabbit-IgG) (Pierce Biochemicals) diluted in maintenance buffer to each well for the detection of immunoreactant products. The plates were maintained for 1 hour at 37° C. after which time the secondary antibody solution was removed. After washing the wells as described above, 50 μl of 2.0 μg/ml streptavidin-alkaline-phosphatase (Pierce Biochemicals) in maintenance buffer was admixed into each well and maintained for 30 minutes at 37° C. Detection of specific immunoreaction products was obtained by admixture of 150 μl/well of 5 mg/ml p-nitrophenylphosphate (PNPP) (Pierce Biochemicals) in 0.1M diethanolamine and 0.02% NaN3 at pH 9.6 followed by measurement of the change in absorbance at 405 nm over time using the EL312 Microplate Bio-Kinetics Reader and the KinetiCalc Software Program (Biotek Instruments, Inc., Vt.). Non-specific binding was considered as the measured absorbance in 10% BSA blocked wells which served as negative controls without the preceding coating of a specific protein or peptide. Under the described conditions, non-specific binding never exceeded more than 5% of the specific binding.
The specificity of immunoaffinity purified anti-(390-404) antibody towards peptide-(390-404) and PC was evaluated by measuring the binding in solid-phase ELISA of the antibody to immobilized peptides including -(384-398), -(390-404), -(396-410), -(404-390), and -K395A-(390-404) listed in Table 1 with their corresponding SEQ ID NO, and to PC. […]

What does the source list for “SGLLHNYGVYTKVSR-NH2 [peptide-(384-398), -SGLLHNYGVYTKVSR]”?
binding of anti-(390-404) antibody to immobilized peptide or PC (solid-phase ELISA): did not bind significantly; also recorded: did not significantly bind; Anti-(390-404) (Absorbance/20 min.) (wells coated with 50 μM peptide or 10 μg/ml PC, 2 μg/ml anti-(390-404) antibody, mean of duplicates): 3 Absorbance/20 min.
